In US8609892B2 (Eli Lilly and Company, priority 2004, dated 2013):

Target: cloned human glucagon receptor (Homo sapiens (Human), UniProt P47871)
Assay: Glucagon Receptor (hGlucR) Binding Assay
Conditions: I-125 glucagon competition, SPA, 293HEK membranes, Cheng-Prusoff
Procedure: This plasmid DNA was transfected into 293 HEK cells and selected with 200 ug/mL Hygromycin.
Crude plasma membranes are prepared using cells from suspension culture. The cells are lysed on ice in hypotonic buffer containing 25 mM Tris HCL, pH 7.5, 1 mM MgCl2, DNAse1, 20 u/mL, and Roche Complete Inhibitors-without EDTA. The cell suspension is homogenized with a glass dounce homogenizer using a Teflon pestle for 25 strokes. The homogenate is centrifuged at 4 degrees C. at 1800×g for 15 mins. The supernate is collected and the pellet is resuspended in hypotonic buffer and rehomogenized. The mixture is centrifuged at 1800×g for 15 mins. The second supernate is combined with the first supernate. The combined supernates are recentrifuged at 1800×g for 15 mins to clarify. The clarified supernate is transferred to high speed tubes and centrifuged at 25000×g for 30 minutes at 4 degrees C. The membrane pellet is resuspended in homogenization buffer and stored as frozen aliquots at −80 degree C. freezer until needed.
The specific activity is 2200 Ci/mmol.
The binding buffer contains 25 mM Hepes, pH 7.4, 2.5 mM CaCl2, 1 mM MgCl2, 0.1% fatty acid free BSA, (ICN), 0.003% tween-20, and Roche Complete Inhibitors without EDTA. […] Test compounds are dissolved in DMSO and serially diluted in DMSO. […] Plates are read with a MicroBeta after 14 hours of settling time at room temp. […]

cloned human glucagon receptor, sequence (P47871 26-477): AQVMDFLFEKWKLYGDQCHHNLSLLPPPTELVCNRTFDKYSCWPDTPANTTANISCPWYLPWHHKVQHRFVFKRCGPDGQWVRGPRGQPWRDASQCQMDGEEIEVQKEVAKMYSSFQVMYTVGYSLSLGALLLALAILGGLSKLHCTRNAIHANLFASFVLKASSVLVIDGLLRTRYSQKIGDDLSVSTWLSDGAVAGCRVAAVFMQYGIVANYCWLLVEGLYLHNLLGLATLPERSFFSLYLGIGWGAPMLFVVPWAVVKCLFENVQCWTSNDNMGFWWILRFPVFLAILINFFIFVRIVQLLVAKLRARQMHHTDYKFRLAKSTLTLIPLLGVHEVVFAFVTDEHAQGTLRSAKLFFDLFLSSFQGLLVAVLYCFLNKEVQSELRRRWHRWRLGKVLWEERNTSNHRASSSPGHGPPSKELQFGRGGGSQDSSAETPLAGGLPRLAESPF

| Ki | SMILES |
| --- | --- |
| 265 nM | Cc1ccc(-c2ccc(SC(CC(C)C)c3ccc(C(=O)NCCC(=O)O)cc3)cc2)cc1C (centres unmarked) |
| 254 nM | CCCC(Oc1ccc(-c2ccc(CC(C)C)cc2)nc1)c1ccc(C(=O)NCCC(=O)O)cc1 (centres unmarked) |
